In ChEMBL document CHEMBL1124322, “Synthesis and alpha 2-adrenoceptor antagonist activity of some disulfonamidobenzoquinolizines” (J Med Chem, 1989):

Assays:
[1] = biological target: T1, Adrenergic receptor alpha-2 (Rattus norvegicus, UniProt P22086+P19328+P22909); test: Antagonism of rat alpha-2 adrenergic receptor from rat vas deferens; format: functional
T1 sequence (P22086 whole entry): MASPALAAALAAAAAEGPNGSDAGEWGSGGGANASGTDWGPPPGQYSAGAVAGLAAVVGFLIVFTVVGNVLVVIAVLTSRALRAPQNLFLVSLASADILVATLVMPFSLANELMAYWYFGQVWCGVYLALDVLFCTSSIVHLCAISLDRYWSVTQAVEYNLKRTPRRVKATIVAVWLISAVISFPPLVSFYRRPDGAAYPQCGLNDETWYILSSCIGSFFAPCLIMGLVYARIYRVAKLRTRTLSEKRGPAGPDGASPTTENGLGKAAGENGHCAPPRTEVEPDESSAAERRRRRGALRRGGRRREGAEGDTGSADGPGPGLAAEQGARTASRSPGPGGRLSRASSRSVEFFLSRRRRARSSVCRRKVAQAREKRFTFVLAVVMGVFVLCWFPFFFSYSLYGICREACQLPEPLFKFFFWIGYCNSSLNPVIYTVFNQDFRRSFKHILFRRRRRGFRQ
T1 sequence (P19328 whole entry): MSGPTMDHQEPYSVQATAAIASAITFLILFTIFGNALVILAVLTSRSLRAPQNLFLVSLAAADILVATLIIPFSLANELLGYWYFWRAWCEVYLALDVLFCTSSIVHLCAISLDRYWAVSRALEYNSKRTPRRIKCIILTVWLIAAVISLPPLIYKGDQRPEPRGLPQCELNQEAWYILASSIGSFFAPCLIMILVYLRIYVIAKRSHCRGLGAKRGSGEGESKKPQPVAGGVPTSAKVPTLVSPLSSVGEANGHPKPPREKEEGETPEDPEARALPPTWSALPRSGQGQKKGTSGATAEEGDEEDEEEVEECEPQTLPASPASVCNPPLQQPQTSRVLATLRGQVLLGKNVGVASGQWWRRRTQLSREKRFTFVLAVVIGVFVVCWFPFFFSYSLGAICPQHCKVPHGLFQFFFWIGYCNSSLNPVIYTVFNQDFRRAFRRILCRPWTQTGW
T1 sequence (P22909 whole entry): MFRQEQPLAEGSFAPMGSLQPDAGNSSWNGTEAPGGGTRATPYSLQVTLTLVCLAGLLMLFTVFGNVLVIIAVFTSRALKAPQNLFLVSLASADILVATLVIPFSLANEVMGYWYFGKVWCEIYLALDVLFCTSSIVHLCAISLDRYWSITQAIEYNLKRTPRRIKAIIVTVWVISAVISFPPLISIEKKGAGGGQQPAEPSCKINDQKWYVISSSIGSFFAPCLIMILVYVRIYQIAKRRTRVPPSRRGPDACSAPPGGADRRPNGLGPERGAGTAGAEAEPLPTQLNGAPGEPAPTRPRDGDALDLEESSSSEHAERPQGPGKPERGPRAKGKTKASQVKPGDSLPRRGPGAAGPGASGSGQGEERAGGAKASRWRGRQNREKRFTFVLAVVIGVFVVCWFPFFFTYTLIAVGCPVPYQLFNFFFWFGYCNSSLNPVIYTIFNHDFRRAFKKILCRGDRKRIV

[2] = biological target: Adrenergic receptor alpha (Rattus norvegicus) (UniProt P15823+P23944+P43140+P22086+P19328+P22909); test: Ratio of pA2 values at alpha-1 and alpha-2 adrenergic receptors.; format: protein assay
[3] = biological target: T2, Adrenergic receptor alpha-1 (Rattus norvegicus, UniProt P15823+P23944+P43140); test: Antagonist activity against alpha-1 adrenergic receptor of rat anococcygeus muscle.; format: functional
T2 sequence (P15823 whole entry): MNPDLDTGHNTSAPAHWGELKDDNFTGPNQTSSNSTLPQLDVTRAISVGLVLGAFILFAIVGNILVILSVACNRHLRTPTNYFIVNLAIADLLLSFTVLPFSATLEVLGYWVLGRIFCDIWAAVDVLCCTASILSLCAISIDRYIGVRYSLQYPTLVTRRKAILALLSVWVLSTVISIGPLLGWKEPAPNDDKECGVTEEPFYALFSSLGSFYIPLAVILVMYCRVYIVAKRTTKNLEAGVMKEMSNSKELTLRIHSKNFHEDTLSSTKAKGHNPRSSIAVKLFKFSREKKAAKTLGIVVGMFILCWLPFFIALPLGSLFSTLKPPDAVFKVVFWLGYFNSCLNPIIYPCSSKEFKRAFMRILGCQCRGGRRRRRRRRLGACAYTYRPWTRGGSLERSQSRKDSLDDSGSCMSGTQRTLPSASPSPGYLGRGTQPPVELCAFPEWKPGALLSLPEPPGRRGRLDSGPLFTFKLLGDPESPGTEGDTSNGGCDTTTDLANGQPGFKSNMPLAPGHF
T2 sequence (P23944 whole entry): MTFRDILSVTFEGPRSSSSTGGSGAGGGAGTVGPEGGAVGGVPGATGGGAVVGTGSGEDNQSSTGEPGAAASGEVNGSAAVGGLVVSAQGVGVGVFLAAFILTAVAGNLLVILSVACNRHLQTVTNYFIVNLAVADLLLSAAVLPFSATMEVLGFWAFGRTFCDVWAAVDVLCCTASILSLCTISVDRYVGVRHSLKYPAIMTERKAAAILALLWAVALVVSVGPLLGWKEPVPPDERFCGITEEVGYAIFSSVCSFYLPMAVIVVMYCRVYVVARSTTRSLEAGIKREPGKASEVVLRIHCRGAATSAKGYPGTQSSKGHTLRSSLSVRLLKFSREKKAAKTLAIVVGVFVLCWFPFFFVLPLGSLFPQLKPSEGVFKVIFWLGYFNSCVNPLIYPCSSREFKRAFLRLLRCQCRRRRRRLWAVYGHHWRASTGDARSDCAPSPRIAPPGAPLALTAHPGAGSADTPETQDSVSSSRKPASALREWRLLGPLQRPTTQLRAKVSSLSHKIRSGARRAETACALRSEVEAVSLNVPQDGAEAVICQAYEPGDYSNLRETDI
T2 sequence (P43140 whole entry): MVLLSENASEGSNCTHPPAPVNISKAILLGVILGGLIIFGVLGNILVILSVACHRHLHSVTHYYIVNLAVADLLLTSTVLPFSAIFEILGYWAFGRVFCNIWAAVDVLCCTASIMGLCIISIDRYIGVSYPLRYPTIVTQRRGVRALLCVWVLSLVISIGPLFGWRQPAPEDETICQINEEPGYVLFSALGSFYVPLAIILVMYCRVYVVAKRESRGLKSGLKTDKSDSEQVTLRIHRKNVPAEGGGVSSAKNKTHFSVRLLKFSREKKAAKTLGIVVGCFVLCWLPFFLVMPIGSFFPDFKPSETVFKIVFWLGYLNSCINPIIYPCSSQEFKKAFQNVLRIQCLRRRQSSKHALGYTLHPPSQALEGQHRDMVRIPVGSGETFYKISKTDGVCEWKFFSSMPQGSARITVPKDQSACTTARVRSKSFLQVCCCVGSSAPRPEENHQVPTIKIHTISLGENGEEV

[4] = test system: Adrenergic receptor alpha (Rattus norvegicus); test: Selectivity ratio towards alpha-2 and alpha1 expressed as antilog(alpha-2pA2-alpha-1pA2)
[5] = biological target: T2, Adrenergic receptor alpha-1; test: Antagonist activity against Alpha-1 adrenergic receptor of rat anococcygeus muscle; format: functional
[6] = biological target: T1, Adrenergic receptor alpha-2; test: Antagonist activity against alpha-2 adrenergic receptor of rat vas deferens; format: functional, tissue-based

Row | SMILES | pA2 [1] | Ratio [2] | pA2 [3] | Ratio [4] | pA2 [5] | pA2 [6]
1 | CCCS(=O)(=O)N(CCNS(=O)(=O)CC)[C@@H]1CCN2CCc3ccccc3[C@@H]2C1 | 8.1 | – | – | – | – | –
2 | CCCS(=O)(=O)NCCN([C@@H]1CCN2CCc3ccccc3[C@@H]2C1)S(C)(=O)=O | 6.7 | 10 | 5.7 | – | – | –
3 | Cc1cccc(S(=O)(=O)N(CCNS(C)(=O)=O)[C@@H]2CCN3CCc4ccccc4[C@@H]3C2)c1 | 8 | 40 | 6.4 | – | – | –
4 | CCCS(=O)(=O)N(CCNS(C)(=O)=O)[C@@H]1CCN2CCc3ccccc3[C@@H]2C1 | 8.29 | 310 | 5.8 | – | – | –
5 | COc1ccc(S(=O)(=O)N(CCNS(C)(=O)=O)[C@@H]2CCN3CCc4ccccc4[C@@H]3C2)cc1 | 8.1 | 100 | 6.1 | – | – | –
6 | CS(=O)(=O)N(CCNS(=O)(=O)c1ccccc1)[C@@H]1CCN2CCc3ccccc3[C@@H]2C1 | 5.9 | 1 | 5.9 | – | – | –
7 | CCS(=O)(=O)N(CCNS(C)(=O)=O)[C@@H]1CCN2CCc3ccccc3[C@@H]2C1 | 8.34 | 490 | 5.65 | – | – | –
8 | CN(CCN([C@@H]1CCN2CCc3ccccc3[C@@H]2C1)S(C)(=O)=O)S(C)(=O)=O | 6.03 | 3 | 5.5 | – | – | –
9 | CCCS(=O)(=O)N(C)[C@@H]1CCN2CCc3ccccc3[C@@H]2C1 | – | 55 | – | – | – | –
10 | CCS(=O)(=O)NCCN([C@@H]1CCN2CCc3ccccc3[C@@H]2C1)S(C)(=O)=O | 7.73 | 120 | 5.65 | – | – | –
11 | CS(=O)(=O)NCCN([C@@H]1CCN2CCc3ccccc3[C@@H]2C1)S(=O)(=O)c1cccc([N+](=O)[O-])c1 | 7.69 | 10 | 6.7 | – | – | –
12 | CS(=O)(=O)NCCN([C@@H]1CCN2CCc3ccccc3[C@@H]2C1)S(=O)(=O)c1ccccc1 | 8.12 | 91 | 6.16 | – | – | –
13 | CS(=O)(=O)N(CCNS(=O)(=O)CCl)[C@@H]1CCN2CCc3ccccc3[C@@H]2C1 | 8.1 | – | – | 79 | 6.2 | –
14 | CS(=O)(=O)NCCCN([C@@H]1CCN2CCc3ccccc3[C@@H]2C1)S(C)(=O)=O | 5.7 | 1 | 5.7 | – | – | –
15 | CS(=O)(=O)NCCN([C@@H]1CCN2CCc3ccccc3[C@@H]2C1)S(C)(=O)=O | 7.93 | 410 | 5.32 | – | – | –
16 | CCS(=O)(=O)NCCN([C@@H]1CCN2CCc3ccccc3[C@@H]2C1)S(=O)(=O)CC | 8.27 | 540 | 5.54 | – | – | –
17 | CS(=O)(=O)NCCCCN([C@@H]1CCN2CCc3ccccc3[C@@H]2C1)S(C)(=O)=O | 5.66 | – | – | – | – | –
18 | CS(=O)(=O)N(CCNS(=O)(=O)C(F)(F)F)[C@@H]1CCN2CCc3ccccc3[C@@H]2C1 | 6.4 | – | – | – | – | –
19 | Cc1ccc(S(=O)(=O)N(CCNS(C)(=O)=O)[C@@H]2CCN3CCc4ccccc4[C@@H]3C2)cc1 | 8.4 | 400 | 5.8 | – | – | –
20 | CS(=O)(=O)NCCN([C@@H]1CCN2CCc3ccccc3[C@@H]2C1)S(=O)(=O)c1ccc(Cl)cc1 | – | – | – | – | – | 8.04
21 | CC(C)(CN([C@@H]1CCN2CCc3ccccc3[C@@H]2C1)S(C)(=O)=O)NS(C)(=O)=O | 6.14 | – | – | – | – | –
22 | CCS(=O)(=O)NCCN([C@@H]1CCN2CCc3ccccc3[C@@H]2C1)S(=O)(=O)c1ccc(C)cc1 | 7.62 | – | 6.6 | – | – | –
23 | O=S(=O)(CCl)NCCN([C@@H]1CCN2CCc3ccccc3[C@@H]2C1)S(=O)(=O)CCl | 8 | – | – | 47 | 6.33 | –
24 | CS(=O)(=O)NCCN([C@@H]1CCN2CCc3ccccc3[C@@H]2C1)S(=O)(=O)c1ccc(F)cc1 | 7.7 | 100 | 5.7 | – | – | –
